# In PubChem BioAssay AID1963834 (Molecular Pharmacology Branch, DTP, NCI, 2024):
# Tested on: 873145-292-R-J1-PDC complex spheroid viability
# Experiment: Anticancer human tumor 873145-292-R-J1-PDC patient-derived renal clear cell carcinoma cell line growth inhibition [POLQ]
# Settings: for IC50: curve of first compound; for viability, T/C: stronger effect = lower value
# How it was run: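 Patient-derived tumour cells were co-cultured with HUVEC and mesenchymal stem cells as multicellular spheroids at 37 °C. They were treated with POLQ inhibitors (novobiocin, ART-558, RP6685) alone or combined with other agents. Top concentrations were at or near clinical Cmax (otherwise 10 microM; SN-38 at 1 microM), decreasing in half-log steps.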
# [1] = second compound 0.0316 µM, first compound 0.00316 µM
# [2] = second compound 0.0316 µM, first compound 0.01 µM
# [3] = second compound 0.0316 µM, first compound 0.0316 µM
# [4] = second compound 0.0316 µM, first compound 0.1 µM
# [5] = second compound 0.0316 µM, first compound 0.316 µM
# [6] = second compound 0.0316 µM, first compound 1 µM
# [7] = second compound 0.1 µM, first compound 0.00316 µM
# [8] = second compound 0.1 µM, first compound 0.01 µM
# [9] = second compound 0.1 µM, first compound 0.0316 µM
# [10] = second compound 0.1 µM, first compound 0.1 µM
# [11] = second compound 0.1 µM, first compound 0.316 µM
# [12] = second compound 0.1 µM, first compound 1 µM
# [13] = second compound 0.316 µM, first compound 0.00316 µM
# [14] = second compound 0.316 µM, first compound 0.01 µM
# [15] = second compound 0.316 µM, first compound 0.0316 µM
# [16] = second compound 0.316 µM, first compound 0.1 µM
# [17] = second compound 0.316 µM, first compound 0.316 µM
# [18] = second compound 0.316 µM, first compound 1 µM
# [19] = second compound 1 µM, first compound 0.00316 µM
# [20] = second compound 1 µM, first compound 0.01 µM
# [21] = second compound 1 µM, first compound 0.0316 µM
# [22] = second compound 1 µM, first compound 0.1 µM
# [23] = second compound 1 µM, first compound 0.316 µM
# [24] = second compound 1 µM, first compound 1 µM
# [25] = second compound 3.16 µM, first compound 0.00316 µM
# [26] = second compound 3.16 µM, first compound 0.01 µM
# [27] = second compound 3.16 µM, first compound 0.0316 µM
# [28] = second compound 3.16 µM, first compound 0.1 µM
# [29] = second compound 3.16 µM, first compound 0.316 µM
# [30] = second compound 3.16 µM, first compound 1 µM
# [31] = second compound 10 µM, first compound 0.00316 µM
# [32] = second compound 10 µM, first compound 0.01 µM
# [33] = second compound 10 µM, first compound 0.0316 µM
# [34] = second compound 10 µM, first compound 0.1 µM
# [35] = second compound 10 µM, first compound 0.316 µM
# [36] = second compound 10 µM, first compound 1 µM
# 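Also: spheroids exposed to compounds for 7 days before viability readout.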
# 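For viability, T/C in this document: luminescence signal used as surrogate for viable cell content; 100% = DMSO vehicle control viability.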
structure (smiles),measurement,setting,value
C=CCn1c(=O)c2cnc(Nc3ccc(N4CCN(C)CC4)cc3)nc2n1-c1cccc(C(C)(C)O)n1 + COC1C(OC(N)=O)C(O)C(Oc2ccc3c(O)c(NC(=O)c4ccc(O)c(CC=C(C)C)c4)c(=O)oc3c2C)OC1(C)C,IC50,second compound 0.0316 µM,> 1000 nM
same,IC50,second compound 0.1 µM,> 1000 nM
same,IC50,second compound 0.316 µM,> 1000 nM
same,IC50,second compound 1 µM,> 1000 nM
same,IC50,second compound 3.16 µM,> 1000 nM
same,IC50,second compound 10 µM,> 1000 nM
same,"viability, T/C",[1],98.9%
same,"viability, T/C",[2],109%
same,"viability, T/C",[3],89.8%
same,"viability, T/C",[4],85.5%
same,"viability, T/C",[5],90.7%
same,"viability, T/C",[6],70.1%
same,"viability, T/C",[7],102%
same,"viability, T/C",[8],97.6%
same,"viability, T/C",[9],100%
same,"viability, T/C",[10],95.5%
same,"viability, T/C",[11],84.9%
same,"viability, T/C",[12],69.9%
same,"viability, T/C",[13],100%
same,"viability, T/C",[14],109%
same,"viability, T/C",[15],96%
same,"viability, T/C",[16],97.7%
same,"viability, T/C",[17],83.5%
same,"viability, T/C",[18],74.5%
same,"viability, T/C",[19],98.8%
same,"viability, T/C",[20],96%
same,"viability, T/C",[21],99.6%
same,"viability, T/C",[22],83.2%
same,"viability, T/C",[23],94.6%
same,"viability, T/C",[24],63.1%
same,"viability, T/C",[25],100%
same,"viability, T/C",[26],98.8%
same,"viability, T/C",[27],89.5%
same,"viability, T/C",[28],89.5%
same,"viability, T/C",[29],88.3%
same,"viability, T/C",[30],75.7%
same,"viability, T/C",[31],100%
same,"viability, T/C",[32],92.1%
same,"viability, T/C",[33],101%
same,"viability, T/C",[34],96.8%
same,"viability, T/C",[35],76.5%
same,"viability, T/C",[36],72%
CCc1c2c(nc3ccc(O)cc13)-c1cc3c(c(=O)n1C2)COC(=O)[C@]3(O)CC + COC1C(OC(N)=O)C(O)C(Oc2ccc3c(O)c(NC(=O)c4ccc(O)c(CC=C(C)C)c4)c(=O)oc3c2C)OC1(C)C,IC50,second compound 0.0316 µM,78.8 nM
same,IC50,second compound 0.1 µM,63.7 nM
same,IC50,second compound 0.316 µM,67.8 nM
same,IC50,second compound 1 µM,50.4 nM
same,IC50,second compound 3.16 µM,59.8 nM
same,IC50,second compound 10 µM,82.9 nM
same,"viability, T/C",[1],108%
same,"viability, T/C",[2],86.7%
same,"viability, T/C",[3],58.6%
same,"viability, T/C",[4],47.1%
same,"viability, T/C",[5],40.6%
same,"viability, T/C",[6],28.6%
same,"viability, T/C",[7],96.4%
same,"viability, T/C",[8],92.1%
same,"viability, T/C",[9],53.7%
same,"viability, T/C",[10],48.4%
same,"viability, T/C",[11],36.7%
same,"viability, T/C",[12],26.9%
same,"viability, T/C",[13],103%
same,"viability, T/C",[14],83%
same,"viability, T/C",[15],59.2%
same,"viability, T/C",[16],43.2%
same,"viability, T/C",[17],39.7%
same,"viability, T/C",[18],28.6%
same,"viability, T/C",[19],104%
same,"viability, T/C",[20],87.2%
same,"viability, T/C",[21],58.1%
same,"viability, T/C",[22],36.6%
same,"viability, T/C",[23],39.4%
same,"viability, T/C",[24],28.7%
same,"viability, T/C",[25],99.8%
same,"viability, T/C",[26],77.1%
same,"viability, T/C",[27],57%
same,"viability, T/C",[28],42.2%
same,"viability, T/C",[29],37.6%
same,"viability, T/C",[30],27.2%
same,"viability, T/C",[31],99.7%
same,"viability, T/C",[32],75.4%
same,"viability, T/C",[33],53.4%
same,"viability, T/C",[34],55.4%
same,"viability, T/C",[35],39.2%
same,"viability, T/C",[36],26.2%
